In US20110028401A1, “CRIPTO BLOCKING MOLECULES AND THERAPEUTIC USES THEREOF” (CONSIGLIO NAZIONALE DELLE RICERCHE, priority 2009, published 2011):

Assays:
Cripto/ALK-4 interaction = molecular target: T1, Cripto/ALK-4 interaction (Mus musculus, UniProt P51865); test: ELISA-based competition assay of Cripto/ALK-4 interaction; type: binding
T1 construct: the displacement of soluble recombinant Cripto from coated ALK-4 by the peptide pools was evaluated
Experimental: To improve the overall solubility of the resulting mixtures, D-Glutamic (D-Glu), corresponding to building block 4 (Table S1) was initially chosen as the common, N-terminal residue. The total complexity of the library was therefore of 30^2=900 different peptides. In the first step of, the deconvolution process, the peptide pools were tested with a molar excess of 30000-fold (calculated for each single peptide) over Cripto (8.6×10^−10 M; FIG. 2. S1). Once identified an active pool(s), a dose-dependent inhibition using 200-, 500-, 1000-, 5000-, 12500 and 30000 fold excess was performed to confirm the inhibitory property (FIG. 3. S2). The first active pool selected was that labelled as 4-23-X (X indicated random positions), where “23” identified the amino acid L-Cysteine(S-benzyl) [L-Cys(Bzl)] (FIG. 3. S2). […] To finally investigate the N-terminal position, where D-Glu was initially arbitrarily placed, 30 single peptides labelled as B-23-23 were synthesized and submitted to the final screening (FIG. 5. S4 (a)). […]
The screening was performed by an ELISA (Enzime-Linked Immunosorbent Assay) assay. […] Finally, the plate was developed with o-phenylendiammine peroxidase substrate (Sigma-Aldrich) and the absorbance was read at 490 nm on a microplate reader (Biorad Benchmark). […]

wild-type EBs = test: Cardiomyogenesis (beating areas) in wild-type embryoid bodies; type: cell-based, mouse
Experimental: Undifferentiated ESCs were cultured as previously described^55.
Given the neutralizing activity of the peptide, the authors then asked whether Cripto BP was able to block ALK-4/Smad2-dependent Cripto signalling in ESCs and thereby mimic the absence of cripto in an ESC differentiation assay. The authors first evaluated whether Cripto BP was able to prevent Cripto-induced Smad2 phosphorylation of serum starved 2 day-old cripto^−/− Embryoid Bodies (EBs), as assessed by Western blot analysis. Recombinant soluble Cripto protein stimulated Smad2 phosphorylation^35. This effect was not modified by the presence of increasing amounts of either Cripto DP or CP (2.5 μM and 25 μM) (FIG. 6a). […] The authors thus asked whether the neutralizing activity of Cripto BP on endogenous Cripto signalling was also able to block cardiomyogenesis in wild-type ESCs. To this end, 2 day-old wild-type EBs were treated with increasing amounts of either CP or Cripto BP, ranging from 5.0 to 25 μM, and the percentage of EBs containing beating areas was scored from days 8 to 12 of the differentiation (n=˜60 EBs/group; FIG. 6b). Given that the peptides were dissolved in DMSO, control untreated EBs were compared with DMSO treated EBs.

T1 sequence (P51865 18-156 limits assumed): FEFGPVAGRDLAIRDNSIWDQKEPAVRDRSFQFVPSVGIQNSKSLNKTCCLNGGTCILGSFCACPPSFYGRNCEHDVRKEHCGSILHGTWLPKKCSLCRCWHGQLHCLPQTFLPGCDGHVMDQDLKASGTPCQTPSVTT

With `C[S+]([O-])CCC(N)C(=O)N[C@@H](CSCc1ccccc1)C(=O)N[C@@H](CSCc1ccccc1)C(=O)N[C@@H](CCCCNC(=O)[C@H](CSCc1ccccc1)NC(=O)[C@H](CSCc1ccccc1)NC(=O)[C@@H](N)CC[S+](C)[O-])C(=O)N[C@@H](CCCCNC(=O)[C@H](CCCCNC(=O)[C@H](CSCc1ccccc1)NC(=O)[C@H](CSCc1ccccc1)NC(=O)[C@@H](N)CC[S+](C)[O-])NC(=O)[C@H](CSCc1ccccc1)NC(=O)[C@H](CSCc1ccccc1)NC(=O)[C@@H](N)CC[S+](C)[O-])C(=O)NCC(=O)O` (stereo partly shown) [Cripto BP] the “inhibitory activity in final library screening” value (Cripto/ALK-4 interaction; 30 single peptides B-23-23, 500- to 4000-fold excess, confirmed with HPLC purified molecule) was “optimal inhibitory activity”, the IC50 (Cripto/ALK-4 interaction; estimated, ELISA competition, FIG. 1b, read-out: IC50 for blocking the interaction of Cripto and ALK-4) was 400 nM and the “rhythmically contracting (beating) EBs” value (wild-type EBs; 25 μM peptide, wild-type EBs, mean±SD) was 3.7%±3.5. For the same molecule, the “effect on the percentage of beating EBs (cardiomyogenesis)” value (wild-type EBs; 5.0 to 25 μM, scored days 8 to 12) was “dose-dependent inhibition of cardiomyogenesis”.
